Data from patent US12410171B2, “Tropomyosin receptor kinase (TRK) degradation compounds and methods of use” (Cullgen (Shanghai), Inc., priority 2020, dated 2025).
Where two headings read alike, the source gives them in different places.

Assays:
TPM3-TRKA fusion protein = target: T1, TPM3-TRKA fusion protein (Homo sapiens, UniProt P04629); assay: TPM3-TRKA fusion protein levels in KM12 cells (Western blot); format: cell-based; conditions: read-out: Degradation (at 10 nM)
T1 construct: The resulted chimeric proteins always retain the kinase domain of TRK proteins; TPM3 (fusion partner, N-terminal part of tropomyosin alpha-3, P06753); endogenous in cells; host or cells: KM12 colon cancer cells; the other entry of the earlier key: TPM3 (P06753, Tropomyosin alpha-3 chain)
T1 sequence (P04629 with tags, fused parts or gaps): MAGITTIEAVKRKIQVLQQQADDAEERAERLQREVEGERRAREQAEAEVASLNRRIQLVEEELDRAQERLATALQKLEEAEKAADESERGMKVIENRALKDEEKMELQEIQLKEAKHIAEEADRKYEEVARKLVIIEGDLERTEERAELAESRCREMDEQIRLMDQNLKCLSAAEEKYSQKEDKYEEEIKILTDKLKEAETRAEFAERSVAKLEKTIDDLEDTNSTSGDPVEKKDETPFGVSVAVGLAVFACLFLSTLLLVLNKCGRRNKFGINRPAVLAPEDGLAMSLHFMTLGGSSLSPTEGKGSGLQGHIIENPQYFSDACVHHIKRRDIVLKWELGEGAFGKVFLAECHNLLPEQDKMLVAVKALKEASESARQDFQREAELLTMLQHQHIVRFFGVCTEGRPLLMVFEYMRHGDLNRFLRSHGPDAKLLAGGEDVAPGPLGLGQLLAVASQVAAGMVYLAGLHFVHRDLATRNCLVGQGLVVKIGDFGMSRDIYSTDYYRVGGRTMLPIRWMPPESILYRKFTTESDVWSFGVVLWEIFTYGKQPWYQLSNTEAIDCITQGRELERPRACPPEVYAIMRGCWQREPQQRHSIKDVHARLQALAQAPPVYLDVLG
Method in brief: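 TPM3-TRKA levels were assessed by Western blot with chemiluminescent detection and band densitometry, after SDS-PAGE of BCA-normalized RIPA lysates. Before lysis, KM12 cells received DMSO, compounds or matched control compounds at concentrations including 0.1, 1, 10 and 100 nM and 0.4–30 nM. Exposures lasted 4 h, 8–16 h or 16 h.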

KM12 cells = assay: KM12 cell viability (CellTiter-Glo); format: cell-based; conditions: Homo sapiens
Method in brief: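 Three-day exposure of KM12 cells (5000/well, RPMI 1640 with 10% FBS, 37 °C, 5% CO2) to compound dilution series, 3-fold over 8 or 11 points (top 1000 nM in the 8-point format) or 2-fold over 12. CellTiter-Glo readout, with IC50 fitted by nonlinear least-squares regression.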

[1] = 16 h, TPM3-TRKA degradation in KM12 cells at 10 nM compound, category of percentage degradation
[2] = 72 h, KM12 cell viability, CellTiter-Glo, three days treatment, read-out: IC50

Compound | percent degradation of TPM3-TRKA protein at 0.01 µM (TPM3-TRKA fusion protein; [1]) | IC50 (KM12 cells; [2]) | percent degradation of TPM3-TRKA protein at 0.01 µM (TPM3-TRKA fusion protein; KM12, 16 h) | IC50 (KM12 cells; KM12, 72 h)
O=C1CCC(N2C(=O)c3ccc(NC(=O)CN4CCN(c5ccc(C(=O)Nc6n[nH]c7ccc(Cc8cc(F)cc(F)c8)cc67)c(NC6CCOCC6)c5)CC4)cc3C2=O)C(=O)N1 (stereo not shown) [TR-273, N-(5-(3,5-Difluorobenzyl)-1H-indazol-3-yl)-4-(4-(2-((2-(2,6-dioxopiperidin-3-yl)-1,3-dioxoisoindolin-5-yl)amino)-2-oxoethyl)piperazin-1-yl)-2-((tetrahydro-2H-pyran-4-yl)amino)benzamide] | > 80% | 41.1 nM |  | 
O=C1CCC(N2C(=O)c3ccc(CCCN4CCN(c5ccc(C(=O)Nc6n[nH]c7ccc(Cc8cc(F)cc(F)c8)cc67)c(NC6CCOCC6)c5)CC4)cc3C2=O)C(=O)N1 (stereo not shown) [TR-276, N-(5-(3,5-difluorobenzyl)-1H-indazol-3-yl)-4-(4-(3-(2˜ (2,6-dioxopiperidin-3-yl)-1,3-dioxoisoindolin-5-yl)propyl)piperazin-1-yl)-2-((tetrahydro-2H-pyran-4-yl)amino)benzamide] | > 80% | 9.9 nM |  | 
O=C1CCC(N2C(=O)c3ccc(N4CCCC(N5CCN(c6ccc(C(=O)Nc7n[nH]c8ccc(Cc9cc(F)cc(F)c9)cc78)c(NC7CCOCC7)c6)CC5)C4)cc3C2=O)C(=O)N1 (stereo not shown) [TR-278, N-(5-(3,5-Difluorobenzyl)-1H-indazol-3-yl)-4-(4-(1-(2-(2,6-dioxopiperidin-3-yl)-1,3-dioxoisoindolin-5-yl)piperidin-3-yl)piperazin-1-yl)-2-((tetrahydro-2/-pyran-4-yl)amino)benzamide] | 50 to 80% | 34.7 nM |  | 
O=C1CCC(N2C(=O)c3ccc(CN4CCCC(N5CCN(c6ccc(C(=O)Nc7n[nH]c8ccc(Cc9cc(F)cc(F)c9)cc78)c(NC7CCOCC7)c6)CC5)C4)cc3C2=O)C(=O)N1 (stereo not shown) [TR-279, N-(5-(3,5-difluorobenzyl)-1H-indazol-3-yl)-4-(4-(1-((2-(2,6-dioxopiperidin-3-yl)-1,3-dioxoisoindolin-5-yl)methyl)piperidin-3-yl)piperazin-1-yl)-2-((tetrahydro-2H-pyran-4-yl)amino)benzamide] | > 80% | 19 nM |  | 
O=C1CCC(N2C(=O)c3ccc(N4CCC(N5CCN(c6ccc(C(=O)Nc7n[nH]c8ccc(Cc9cc(F)cc(F)c9)cc78)c(NC7CCOCC7)c6)CC5)CC4)cc3C2=O)C(=O)N1 (stereo not shown) [TR-280, N-(5-(3,5-difluorobenzyl)-1H-indazol-3-yl)-4-(4-(1-(2-(2,6-dioxopiperidin-3-yl)-1,3-dioxoisoindolin-5-yl)piperidin-4-yl)piperazin-1-yl)-2-((tetrahydro-2H-pyran-4-yl)amino)benzamide] |  |  | > 80% | 4.3 nM
O=C1CCC(N2C(=O)c3ccc(CN4CCC(N5CCN(c6ccc(C(=O)Nc7n[nH]c8ccc(Cc9cc(F)cc(F)c9)cc78)c(NC7CCOCC7)c6)CC5)CC4)cc3C2=O)C(=O)N1 (stereo not shown) [TR-281, N-(5-(3,5-difluorobenzyl)-1H-indazol-3-yl)-4-(4-(1-((2-(2,6-dioxopiperidin-3-yl)-1,3-dioxoisoindolin-5-yl)methyl)piperidin-4-yl)piperazin-1-yl)-2-((tetrahydro-2H-pyran-4-yl)amino)benzamide] | > 80% | 17.4 nM |  | 
O=C1CCC(N2C(=O)c3ccc(N4CCOC(CN5CCN(c6ccc(C(=O)Nc7n[nH]c8ccc(Cc9cc(F)cc(F)c9)cc78)c(NC7CCOCC7)c6)CC5)C4)cc3C2=O)C(=O)N1 (stereo not shown) [TR-282, N-(5-(3,5-difluorobenzyl)-1H-indazol-3-yl)-4-(4-((4-(2-(2,6-dioxopiperidin-3-yl)-1,3-dioxoisoindolin-5-yl)morpholin-2-yl)methyl)piperazin-1-yl)-2-((tetrahydro-2H-pyran-4-yl)amino)benzamide] | > 80% | 6.3 nM |  | 
O=C1CCC(N2C(=O)c3ccc(C#CCN4CCN(c5ccc(C(=O)Nc6n[nH]c7ccc(Cc8cc(F)cc(F)c8)cc67)c(NC6CCOCC6)c5)CC4)cc3C2=O)C(=O)N1 (stereo not shown) [TR-283, N-(5-(3,5-Difluorobenzyl)-1H-indazol-3-yl)-4-(4-(3-(2-(2,6-dioxopiperidin-3-yl)-1,3-dioxoisoindolin-5-yl)prop-2-yn-1-yl)piperazin-1-yl)-2-((tetrahydro-28-pyran-4-yl)amino)benzamide] | > 80% | 54 nM |  | 
O=C1CCC(N2C(=O)c3ccc(N4CCC(N5CCN(c6ccc(C(=O)Nc7n[nH]c8ccc(Cc9cc(F)cc(F)c9)cc78)c(NC7CCOCC7)c6)CC5)C4)cc3C2=O)C(=O)N1 (stereo not shown) [TR-284, N-(5-(3,5-difluorobenzyl)-1H-indazol-3-yl)-4-(4-(1-(2-(2,6-dioxopiperidin-3-yl)-1,3-dioxoisoindolin-5-yl)pyrrolidin-3-yl)piperazin-1-yl)-2-((tetrahydro-2H-pyran-4-yl)amino)benzamide] | > 80% | 5 nM |  | 
O=C1CCC(N2C(=O)c3ccc(CN4CCC(N5CCN(c6ccc(C(=O)Nc7n[nH]c8ccc(Cc9cc(F)cc(F)c9)cc78)c(NC7CCOCC7)c6)CC5)C4)cc3C2=O)C(=O)N1 (stereo not shown) [TR-285, N-(5-(3,5-difluorobenzyl)-1H-indazol-3-yl)-4-(4-(1-((2-(2,6-dioxopiperidin-3-yl)-1,3-dioxoisoindolin-5-yl)methyl)pyrrolidin-3-yl)piperazin-1-yl)-2-((tetrahydro-2H-pyran-4-yl)amino)benzamide] | > 80% | 9.7 nM |  | 
O=C1CCC(N2C(=O)c3ccc(N4CCOC(CN5CCN(c6cccc(-c7cnc8ccc(N9CCC[C@@H]9c9cccc(F)c9)nn78)n6)CC5)C4)cc3C2=O)C(=O)N1 (stereo partly drawn) [TR-286, 2-(2,6-dioxopiperidin-3-yl)-5-(2-((4-(6-(6-((R)-2-(3-fluorophenyl)pyrrolidin-1-yl)imidazo[1,2-b]pyridazin-3-yl)pyridin-2-yl)piperazin-1-yl)methyl)morpholino) isoindoline-1,3-dione] | > 80% | 7.8 nM |  | 
O=C1CCC(N2C(=O)c3ccc(N4CC(OC5CCN(c6cccc(-c7cnc8ccc(N9CCC[C@@H]9c9cccc(F)c9)nn78)n6)CC5)C4)cc3C2=O)C(=O)N1 (stereo partly drawn) [TR-287, 2-(2,6-dioxopiperidin-3-yl)-5-(3-((1-(6-(6-((R)-2˜ (3-fluorophenyl)pyrrolidin-1-yl)imidazo[1,2-b]pyridazin-3-yl)pyridin-2-yl)piperidin-4-yl)oxy)azetidin-1-yl)isoindoline-1,3-dione] | > 80% | 19.3 nM |  | 
O=C1CCC(N2C(=O)c3ccc(N4CC(NC5CCN(c6cccc(-c7cnc8ccc(N9CCC[C@@H]9c9cccc(F)c9)nn78)n6)CC5)C4)cc3C2=O)C(=O)N1 (stereo partly drawn) [TR-288, 2-(2,6-dioxopiperidin-3-yl)-5-(3-((1-(6-(6-((R)-2-(3-fluorophenyl)pyrrolidin-1-yl)imidazo[1,2-b]pyridazin-3-yl)pyridin-2-yl)piperidin-4-yl)amino)azetidin-1-yl)isoindoline-1,3-dione] |  | 9.2 nM | > 80% | 
O=C1CCC(N2C(=O)c3ccc(NC4CCC(N5CCN(c6ccc(C(=O)Nc7n[nH]c8ccc(Cc9cc(F)cc(F)c9)cc78)c(NC7CCOCC7)c6)CC5)CC4)cc3C2=O)C(=O)N1 (stereo not shown) [TR-289, N-(5-(3,5-Difluorobenzyl)-1H-indazol-3-yl)-4-(4-(4-((2-(2,6-dioxopiperidin-3-yl)-1,3-dioxoisoindolin-5-yl)amino)cyclohexyl)piperazin-1-yl)-2-((tetrahydro-2H-pyran-4-yl)amino)benzamide] | > 80% | 3.8 nM |  | 
O=C1CCC(N2C(=O)c3ccc(N4CCC5(CC(N6CCN(c7ccc(C(=O)Nc8n[nH]c9ccc(Cc%10cc(F)cc(F)c%10)cc89)c(NC8CCOCC8)c7)CC6)C5)C4)cc3C2=O)C(=O)N1 (stereo not shown) [TR-290, N-(5-(3,5-difluorobenzyl)-1H-indazol-3-yl)-4-(4-(6-(2-(2,6-dioxopiperidin-3-yl)-1,3-dioxoisoindolin-5-yl)-6-azaspiro[3.4]octan-2-yl)piperazin-1-yl)-2-((tetrahydro-2H-pyran-4-yl)amino)benzamide] | > 80% | 11.2 nM |  | 
O=C1CCC(N2C(=O)c3ccc(C4CN(CCN5CCN(c6cccc(-c7cnc8ccc(N9CCC[C@@H]9c9cccc(F)c9)nn78)n6)CC5)C4)cc3C2=O)C(=O)N1 (stereo partly drawn) [TR-292, 2-(2,6-dioxopiperidin-3-yl)-5-(1-(2-(4-(6-(6-((R)-2-(3-fluorophenyl)pyrrolidin-1-yl)imidazo[1,2-b]pyridazin-3-yl)pyridin-2-yl)piperazin-1-yl)ethyl)azetidin-3-yl)isoindoline-1,3-dione] | > 80% | 8.2 nM |  | 
O=C1CCC(N2C(=O)c3ccc(C4CN(CC5CCN(c6cccc(-c7cnc8ccc(N9CCC[C@@H]9c9cccc(F)c9)nn78)n6)CC5)C4)cc3C2=O)C(=O)N1 (stereo partly drawn) [TR-293, 2-(2,6-dioxopiperidin-3-yl)-5-(1-((1-(6-(6-((R)-2-(3-fluorophenyl)pyrrolidin-1-yl)imidazo[1,2-b]pyridazin-3-yl)pyridin-2-yl)piperidin-4-yl)methyl)azetidin-3-yl)isoindoline-1,3-dione] | > 80% | 9.5 nM |  | 
